Experimental data as given in patent US10526347B2, “3-(3H-imidazo[4,5-B]pyridin-2-yl)-1H-pyrazolo[3,4-B]pyridine and therapeutic uses thereof” (Samumed, LLC, priority 2014, dated 2020).

Experiments:
[1] = system: primary human fibroblasts derived from IPF patients (LL29 cells); assay: Inhibition of the fibrotic process in TGF-β1 treated IPF patient fibroblasts (αSMA staining); type: cell-based; conditions: Fibroblast, 96 h, LL29 cells treated with TGF-β1 (20 ng/mL), 4 days, read-out: Inhibition of fibrosis EC50
Description: The above synthesized compounds were screened using primary human fibroblasts (derived from IPF patients) treated with TGF-β1 to determine their ability to inhibit the fibrotic process.
Primary human fibroblasts derived from IPF patients (LL29 cells) [^1Xiaoqiu Liu, et. al., “Fibrotic Lung Fibroblasts Show Blunted Inhibition by cAMP Due to Deficient cAMP Response Element-Binding Protein Phosphorylation”, Journal of Pharmacology and Experimental Therapeutics (2005), 315(2), 678-687; ^2Watts, K. L., et. al., “RhoA signaling modulates cyclin D1 expression in human lung fibroblasts; implications for idiopathic pulmonary fibrosis”, Respiratory Research (2006), 7(1), 88] were obtained from American Type Culture Collection (ATCC) and expanded in F12 medium supplemented with 15% Fetal Bovine Serum and Penicillin/Streptomycin.
Each compound was dissolved in DMSO as a 10 mM stock and used to prepare compound source plates. Serial dilution (1:2, 11-point dose-response curves from 10 μM to 1.87 nM) and compound transfer was performed using the ECHO 550 (Labcyte, Sunnyvale, Calif.) into 384-well clear bottom assay plates (Greiner Bio-One) with appropriate DMSO backfill for a final DMSO concentration of 0.1%. LL29 cells were plated at 1,500 cells/well in 80 μl/well F12 medium supplemented with 1% Fetal Bovine Serum. One hour after addition of the cells, TGF-β1 (Peprotech; 20 ng/mL) was added to the plates to induce fibrosis (ref. 1 and 2 above). Wells treated with TGF-β1 and containing DMSO were used as controls. Cells were incubated at 37° C. and 5% CO2 for 4 days. Following incubation for 4 days, SYTOX green nucleic acid stain (Life Technologies [Thermo Fisher Scientific]) was added to the wells at a final concentration of 1 uM and incubated at room temperature for 30 min. Cells were then fixed using 4% formaldehyde (Electron Microscopy Sciences), washed 3 times with PBS followed by blocking and permeabilization using 3% Bovine Serum Albumin (BSA; Sigma) and 0.3% Triton X-100 (Sigma) in PBS. Cells were then stained with antibody specific to α-smooth muscle actin (αSMA; Abcam) (ref. 1 and 2 above) in 3% Bovine Serum Albumin (BSA; Sigma) and 0.3% Triton X-100 (Sigma) in PBS, and incubated overnight at 4° C. Cells were then washed 3 times with PBS, followed by incubation with Alexa Flor-647 conjugated secondary antibody (Life Technologies [Thermo Fisher Scientific]) and DAPI at room temperature for 1 hour. Cells were then washed 3 times with PBS and plates were sealed for imaging. αSMA staining was imaged by excitation at 630 nm and emission at 665 nm and quantified using the Compartmental Analysis program on the CellInsight CX5 (Thermo Scientific). Dead or apoptotic cells were excluded from analysis based on positive SYTOX green staining. % of total cells positive for αSMA were counted in each well and normalized to the average of 11 wells treated with TGF-β1 on the same plate using Dotmatics' Studies Software. The normalized averages (fold change over untreated) of 3 replicate wells for each compound concentration were used to create dose-responses curves and EC50 values were calculated using non-linear regression curve fit in the Dotmatics' Studies Software. The EC50 values are reported.

[2] = system: Wnt activity (SW480 colon carcinoma cells stably expressing the Sp5-Luc reporter gene); assay: Sp5-Luc reporter gene screening assay for Wnt activity; type: cell-based; conditions: Homo sapiens
How it was run: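 The SW480 cells carry a lentiviral luciferase reporter driven by a Sp5 promoter with eight TCF/LEF sites. They were plated at 10,000 cells/well in 10% FCS overnight, then pinned with 50 nl of 3-fold dilutions (10 mM top source concentration) into 50 μl.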

Structure (SMILES) | IC50 [2] [µM] | EC50 [1] [µM]
Fc1cccc(-c2ccnc3[nH]c(-c4n[nH]c5ncc(C6=CCNCC6)cc45)nc23)c1 [Compound 910, 3-(7-(3-Fluorophenyl)-3H-imidazo[4,5-b]pyridin-2-yl)-5-(1,2,3,6-tetrahydropyridin-4-yl)-1H-pyrazolo[3,4-b]pyridine] | > 10 | ≥ 9.99
CN(C)c1cncc(-c2cnc3[nH]nc(-c4nc5c(N6CCCCC6)ccnc5[nH]4)c3c2)c1 [Compound 139, N,N-Dimethyl-5-(3-(7-(piperidin-1-yl)-3H-imidazo[4,5-b]pyridin-2-yl)-1H-pyrazolo[3,4-b]pyridin-5-yl)pyridin-3-amine] | 0.385 | ≥ 9.99
CCCC(=O)Nc1cncc(-c2cnc3[nH]nc(-c4nc5c(-c6ccncc6)ccnc5[nH]4)c3c2)c1 [Compound 102, N-(5-(3-(7-(Pyridin-4-yl)-3H-imidazo[4,5-b]pyridin-2-yl)-1H-pyrazolo[3,4-b]pyridin-5-yl)pyridin-3-yl)butyramide] | 2.38 | ≥ 9.99
CCNCc1cncc(-c2cnc3[nH]nc(-c4nc5c(-c6ccccn6)ccnc5[nH]4)c3c2)c1 [Compound 114, N-((5-(3-(7-(Pyridin-2-yl)-3H-imidazo[4,5-b]pyridin-2-yl)-1H-pyrazolo[3,4-b]pyridin-5-yl)pyridin-3-yl)methyl)ethanamine] | > 10 | ≥ 9.99
c1cncc(-c2ccnc3[nH]c(-c4n[nH]c5ncc(-c6cncc(CN7CCCCC7)c6)cc45)nc23)c1 [Compound 78, 5-(5-(Piperidin-1-ylmethyl)pyridin-3-yl)-3-(7-(pyridin-3-yl)-3H-imidazo[4,5-b]pyridin-2-yl)-1H-pyrazolo[3,4-b]pyridine] | > 10 | ≥ 9.99
CS(=O)(=O)NCc1cc(F)cc(-c2ccnc3[nH]c(-c4n[nH]c5ncc(-c6cncnc6)cc45)nc23)c1 [Compound 414, N-(3-Fluoro-5-(2-(5-(pyrimidin-5-yl)-1H-pyrazolo[3,4-b]pyridin-3-yl)-3H-imidazo[4,5-b]pyridin-7-yl)benzyl)methanesulfonamide] | > 10 | ≥ 9.99

Now from value to molecule, other results behind:

IC50 [2] [µM] | Structure (SMILES) | EC50 [1] [µM]
> 10 | Fc1cccc(-c2ccnc3[nH]c(-c4n[nH]c5ncc(-c6ccncc6)cc45)nc23)c1 [Compound 924, 3-(7-(3-Fluorophenyl)-3H-imidazo[4,5-b]pyridin-2-yl)-5-(pyridin-4-yl)-1H-pyrazolo[3,4-b]pyridine] | ≥ 9.99
> 10 | O=C(Nc1cncc(-c2cnc3[nH]nc(-c4nc5cccnc5[nH]4)c3c2)c1)C1CCCCC1 [Compound 228, N-(5-(3-(3H-Imidazo[4,5-b]pyridin-2-yl)-1H-pyrazolo[3,4-b]pyridin-5-yl)pyridin-3-yl)cyclohexanecarboxamide] | ≤ 0.009
0.008 | Cc1ccc(-c2ccnc3[nH]c(-c4n[nH]c5ncc(-c6cncc(NC(=O)C7CCCC7)c6)cc45)nc23)s1 [Compound 357, N-(5-(3-(7-(5-Methylthiophen-2-yl)-3H-imidazo[4,5-b]pyridin-2-yl)-1H-pyrazolo[3,4-b]pyridin-5-yl)pyridin-3-yl)cyclopentanecarboxamide] | 1.39
> 10 | CN(C)CCOc1cncc(-c2cnc3[nH]nc(-c4nc5c(-c6cccc(F)c6)ccnc5[nH]4)c3c2)c1 [Compound 919, 2-((5-(3-(7-(3-Fluorophenyl)-3H-imidazo[4,5-b]pyridin-2-yl)-1H-pyrazolo [3,4-b]pyridin-5-yl)pyridin-3-yl)oxy)-N,N-dimethylethan-1-amine] | ≤ 0.009
0.276 | Cc1cn(-c2ccnc3[nH]c(-c4n[nH]c5ncc(-c6cncc(CN7CCCC7)c6)cc45)nc23)cn1 [Compound 171, 3-(7-(4-Methyl-1H-imidazol-1-yl)-3H-imidazo[4,5-b]pyridin-2-yl)-5-(5-(pyrrolidin-1-ylmethyl)pyridin-3-yl)-1H-pyrazolo[3,4-b]pyridine] | ≤ 0.009
